In brackets after ≈: the same amount, converted by molar mass.
Details: buffer; pH 7.4; 200.0 µM

Which solubility kinetic does the source give for `Nc1ccc(C2(c3ccc(N)cc3)CCCCC2)cc1` here?
Its solubility kinetic is 36 µg/mL (≈ 135 µM).

Which solubility kinetic does the source give for `Cc1cc(O)ccc1Nc1nc(-c2cccnc2)cs1` here?
The solubility kinetic was 1.8 µg/mL (≈ 6.35 µM).

For `COc1ccc(NC(=O)COC(=O)c2ccc3ccccc3n2)c(OC)c1`, which solubility kinetic is on record?
The solubility kinetic was 3 µg/mL (≈ 8.19 µM).

Which solubility kinetic does the source give for `COc1ccc(C(=O)N2CCC(C(=O)Nc3ccc(C)cc3)CC2)cc1` here?
The solubility kinetic was > 52.9 µg/mL.

With `CC1CCCN(C(=O)CCNC(=O)c2ccccc2Cl)C1` (stereo unspecified) as the molecule, how does the solubility kinetic read?
Its solubility kinetic is > 46.3 µg/mL.

With `Cc1ccc2cc(COC(=O)c3cccc([N+](=O)[O-])c3)c(=O)[nH]c2c1` as the molecule, how does the solubility kinetic read?
The solubility kinetic was 2.7 µg/mL (≈ 7.98 µM).

With `CN1CCN(CCC(=O)Nc2ccccc2)CC1` as the molecule, how does the solubility kinetic read?
Its solubility kinetic is > 37.1 µg/mL.

With `Cc1cccc(N2CCN(C(=O)CCc3nc4ccccc4c(=O)[nH]3)CC2)c1C` as the molecule, how does the solubility kinetic read?
Its solubility kinetic is 2 µg/mL (≈ 5.12 µM).

With `COc1ccc(C2CC(=O)C(C=NCCCO)=C(O)C2)cc1` (stereo unspecified) as the molecule, how does the solubility kinetic read?
The solubility kinetic was > 45.5 µg/mL.

For `COc1cccc(C(=O)Nc2cc3c4c(c2)CC(=O)N4CCC3)c1`, which solubility kinetic is on record?
Its solubility kinetic is > 48.4 µg/mL.

For `CC(=O)Nc1ccc(S(=O)(=O)NC2Cc3ccccc3C2)cc1`, which solubility kinetic is on record?
Its solubility kinetic is 6.8 µg/mL (≈ 20.6 µM).

With `Cc1ccc(S(=O)(=O)N(C)C)cc1NC(=O)CN1CCCC1` as the molecule, how does the solubility kinetic read?
The solubility kinetic was > 48.8 µg/mL.

For `O=C(NCCCCc1ccccc1)c1cccc(Br)c1`, which solubility kinetic is on record?
Its solubility kinetic is 9.6 µg/mL (≈ 28.9 µM).

Which solubility kinetic does the source give for `CCc1noc(C)c1C(=O)Nc1nc2ccc(F)cc2s1` here?
Its solubility kinetic is 27.2 µg/mL (≈ 89.1 µM).

For `O=C(NC(=S)Nc1ccccc1Br)C1CC1`, which solubility kinetic is on record?
The solubility kinetic was 41.7 µg/mL (≈ 139 µM).

With `CN=c1scc(-c2ccccc2F)n1/N=C/c1ccc(O)c(O)c1O` as the molecule, how does the solubility kinetic read?
The solubility kinetic was > 53.9 µg/mL.

For `O=C(Nc1ccc(F)cc1F)c1ccccc1NC(=O)C1CC=CCC1C(=O)O` (stereo unspecified), which solubility kinetic is on record?
Its solubility kinetic is 59.7 µg/mL (≈ 149 µM).

For `Cc1c(Cl)cccc1NC(=O)NCc1ccccn1`, which solubility kinetic is on record?
The solubility kinetic was 38.5 µg/mL (≈ 140 µM).

Which solubility kinetic does the source give for `CCN1CCc2c(C#N)c(NCc3ccccc3)nc(NCCO)c2C1` here?
The solubility kinetic was 6.3 µg/mL (≈ 17.9 µM).

Which solubility kinetic does the source give for `Cc1cccnc1NC(=O)CNC(=O)c1ccccc1` here?
Its solubility kinetic is > 40.4 µg/mL.

With `O=C(NC(Cc1ccccc1)C(=O)O)c1cccnc1Cl` (stereo unspecified) as the molecule, how does the solubility kinetic read?
The solubility kinetic was 35 µg/mL (≈ 115 µM).

For `S=C(NCCc1ccccc1)NCc1cccc(Cl)c1`, which solubility kinetic is on record?
Its solubility kinetic is 13.9 µg/mL (≈ 45.6 µM).

For `O=C(O)C1CCN(C(=O)c2cccc3ccccc23)CC1`, which solubility kinetic is on record?
The solubility kinetic was > 42.5 µg/mL.

For `CC(C)(C)C(=O)Nc1ccc(N2CCN(S(C)(=O)=O)CC2)cc1`, which solubility kinetic is on record?
The solubility kinetic was 17.6 µg/mL (≈ 51.8 µM).

With `Cc1cc(C)c(NC(=S)NCCCSC2CCCCC2)c(C)c1` as the molecule, how does the solubility kinetic read?
Its solubility kinetic is 6.1 µg/mL (≈ 17.4 µM).

Which solubility kinetic does the source give for `Cc1ccc(C)c(OCC(=O)Nc2ccncc2)c1` here?
Its solubility kinetic is 37 µg/mL (≈ 144 µM).

Which solubility kinetic does the source give for `Cc1ccnc(NS(=O)(=O)c2cc(C(F)(F)F)ccc2Cl)c1` here?
Its solubility kinetic is 1.7 µg/mL (≈ 4.85 µM).

With `CC(=O)Nc1ccc(NC(=O)COC(=O)c2cnccn2)cc1` as the molecule, how does the solubility kinetic read?
The solubility kinetic was > 47.1 µg/mL.

For `CC1=C(c2ccccc2)C(=S)NC(C)(C)C1`, which solubility kinetic is on record?
The solubility kinetic was 2.5 µg/mL (≈ 10.8 µM).

For `Cn1c(SCC(=O)Nc2ccc3c(c2)OCCO3)nnc1-c1ccncc1`, which solubility kinetic is on record?
Its solubility kinetic is > 57.5 µg/mL.

Which solubility kinetic does the source give for `O=c1[nH]c2ccccc2o1` here?
The solubility kinetic was > 20.3 µg/mL.

With `O=C(CC1SCCNC1=O)Nc1cccc([N+](=O)[O-])c1` (stereo unspecified) as the molecule, how does the solubility kinetic read?
Its solubility kinetic is > 44.3 µg/mL.

For `CC(=O)N(C)N(C)c1cc(C)nc(N)n1`, which solubility kinetic is on record?
The solubility kinetic was > 31.4 µg/mL.

Which solubility kinetic does the source give for `Clc1ccc(CN2CCN(c3ncccn3)CC2)cc1Cl` here?
The solubility kinetic was 13 µg/mL (≈ 40.2 µM).

Which solubility kinetic does the source give for `Cc1ccc(C(=O)N2CCCC(C(=O)c3cc(F)ccc3F)C2)s1` (stereo unspecified) here?
Its solubility kinetic is 52.3 µg/mL (≈ 150 µM).

For `O=C(CSc1nccn1-c1cccc(F)c1)NC1CCCC1`, which solubility kinetic is on record?
Its solubility kinetic is > 47.9 µg/mL.

For `O=CC1=C(N2CCOCC2)/C(=C/c2ccc(Cl)cc2)CC1`, which solubility kinetic is on record?
The solubility kinetic was 32.1 µg/mL (≈ 106 µM).

Which solubility kinetic does the source give for `CCCCN(C)Cc1cc(=O)oc2ccc3ccccc3c12` here?
The solubility kinetic was 1.8 µg/mL (≈ 6.09 µM).

For `CS(=O)(=O)N(CC(=O)NCCSCc1cccc(Cl)c1)c1ccc(F)cc1`, which solubility kinetic is on record?
The solubility kinetic was 38 µg/mL (≈ 88.2 µM).

For `CCc1cc2c(SC(C)C(=O)NC3CCCC3)ncnc2s1` (stereo unspecified), which solubility kinetic is on record?
The solubility kinetic was 34.4 µg/mL (≈ 103 µM).

For `O=C(COC(=O)C(CO)NS(=O)(=O)c1ccc(Br)cc1)Nc1ccc2c(c1)OCCO2` (stereo unspecified), which solubility kinetic is on record?
The solubility kinetic was > 77.3 µg/mL.

For `CCOc1c(C)cnc2c1c(=O)n(Cc1ccccc1F)c(=O)n2C`, which solubility kinetic is on record?
The solubility kinetic was 15.8 µg/mL (≈ 46 µM).

Which solubility kinetic does the source give for `COc1ccc(NC(=O)Cc2ccc(C)c(C)c2)cc1Cl` here?
Its solubility kinetic is 2.1 µg/mL (≈ 6.91 µM).

Which solubility kinetic does the source give for `NC(=O)c1ccc(NC(=O)Nc2ccc3c(c2)OCO3)cc1` here?
Its solubility kinetic is 3.8 µg/mL (≈ 12.7 µM).

For `Cc1ccc(C)c(-n2c(C)nc3ccccc3c2=O)c1`, which solubility kinetic is on record?
The solubility kinetic was > 39.6 µg/mL.

Which solubility kinetic does the source give for `O=c1c2ccccc2nc2ccccn12` here?
The solubility kinetic was 28.7 µg/mL (≈ 146 µM).

With `CC(SCc1ccccc1)C(=O)Nc1ccccc1` (stereo unspecified) as the molecule, how does the solubility kinetic read?
Its solubility kinetic is 32.1 µg/mL (≈ 118 µM).

Which solubility kinetic does the source give for `CCCS(=O)(=O)NCCc1csc(-c2ccc(OC)c(OC)c2)n1` here?
Its solubility kinetic is 51.7 µg/mL (≈ 140 µM).

With `COc1ccc(NC(=O)COc2ccc3c(c2)CCC3)cc1S(N)(=O)=O` as the molecule, how does the solubility kinetic read?
The solubility kinetic was 15.9 µg/mL (≈ 42.2 µM).

With `CC(C)(C)c1ncc(S(=O)(=O)c2ccc(C(F)(F)F)cn2)c(N)n1` as the molecule, how does the solubility kinetic read?
The solubility kinetic was 1.4 µg/mL (≈ 3.88 µM).

Which solubility kinetic does the source give for `O=C(O)CCCC(=O)Nc1cccc([N+](=O)[O-])c1` here?
Its solubility kinetic is > 37.8 µg/mL.

For `CCc1noc(C)c1C(=O)OCC(=O)Nc1ccc2c(c1)OCO2`, which solubility kinetic is on record?
Its solubility kinetic is 9.5 µg/mL (≈ 28.6 µM).

With `Cc1ccc(S(=O)(=O)N2CCOCC2)cc1NC(=O)c1ccc(F)cc1F` as the molecule, how does the solubility kinetic read?
Its solubility kinetic is 8.2 µg/mL (≈ 20.7 µM).

With `CC1CCCCN1S(=O)(=O)c1cccc2nonc12` (stereo unspecified) as the molecule, how does the solubility kinetic read?
Its solubility kinetic is 39.6 µg/mL (≈ 141 µM).

With `COc1ccc(NC(=O)c2cnc(SC)nc2)cc1` as the molecule, how does the solubility kinetic read?
Its solubility kinetic is 8.4 µg/mL (≈ 30.5 µM).

With `O=C(OCc1cccc([N+](=O)[O-])c1)c1cccnc1Cl` as the molecule, how does the solubility kinetic read?
Its solubility kinetic is 5.4 µg/mL (≈ 18.5 µM).

With `CCN(CC)c1ccc(C(=O)OCC(=O)Nc2cc(C)on2)cc1` as the molecule, how does the solubility kinetic read?
The solubility kinetic was 4.6 µg/mL (≈ 13.9 µM).

With `CC(=O)Nc1ccc(CNC(=O)C[N+]2(C)CCOCC2)cc1.[Cl-]` as the molecule, how does the solubility kinetic read?
The solubility kinetic was 46.2 µg/mL.

For `COc1ccccc1C(=O)OCC(=O)NC(=O)NC1CCCC1`, which solubility kinetic is on record?
The solubility kinetic was > 48.1 µg/mL.

For `O=C(Cc1cccs1)NC1CCCC1`, which solubility kinetic is on record?
The solubility kinetic was > 31.4 µg/mL.

With `COc1ccc(NC(=O)[C@@H](NS(=O)(=O)c2cccc(Cl)c2)C(C)C)cc1S(=O)(=O)N1CCOCC1` as the molecule, how does the solubility kinetic read?
Its solubility kinetic is > 81.9 µg/mL.

Which solubility kinetic does the source give for `COc1ccc2oc(C(=O)OCC(=O)N3C(C)CCCC3C)c(C)c2c1` (stereo unspecified) here?
Its solubility kinetic is 31.9 µg/mL (≈ 88.8 µM).

For `CC(Sc1ccccc1)C(=O)NCCc1ccccc1` (stereo unspecified), which solubility kinetic is on record?
The solubility kinetic was > 42.8 µg/mL.

With `CN(Cc1ccccc1)C(=O)COc1ccccc1Cl` as the molecule, how does the solubility kinetic read?
The solubility kinetic was 40 µg/mL (≈ 138 µM).

With `Cc1cccc(N(Cc2ccccc2)C(=O)c2ccccc2F)c1` as the molecule, how does the solubility kinetic read?
Its solubility kinetic is 11.5 µg/mL (≈ 36 µM).

Which solubility kinetic does the source give for `C=CCn1c(C)c(C(=O)OCC)c2cc(O)c3ccccc3c21` here?
The solubility kinetic was < 0.7 µg/mL.

With `Cc1nn(CC(=O)NC(C)C)c(C)c1[N+](=O)[O-]` as the molecule, how does the solubility kinetic read?
Its solubility kinetic is > 36 µg/mL.

For `Cc1cc(Cl)cc(C)c1OCCn1ccnc1.Cl`, which solubility kinetic is on record?
Its solubility kinetic is > 43.1 µg/mL.

For `COc1ccc(/C=C/C(=O)NC2=NCCS2)cc1OC`, which solubility kinetic is on record?
The solubility kinetic was 1.5 µg/mL (≈ 5.13 µM).

Which solubility kinetic does the source give for `Cc1onc(-c2ccccc2)c1C(=O)Nc1sccc1C#N` here?
The solubility kinetic was 23.5 µg/mL (≈ 76 µM).

Which solubility kinetic does the source give for `Cc1cc(C)c(OCCN(C)C)c(Cl)c1.O=C(O)C(=O)O` here?
The solubility kinetic was > 47.7 µg/mL.

Which solubility kinetic does the source give for `CN(C)C(=O)CN1C(=O)NC2(CCc3ccccc32)C1=O` (stereo unspecified) here?
The solubility kinetic was > 43.1 µg/mL.

With `Cc1ccc[n+](CC(=O)Nc2ccc(N(C)C)cc2)c1.[Cl-]` as the molecule, how does the solubility kinetic read?
The solubility kinetic was > 45.9 µg/mL.

With `O=C(COC(=O)c1ccccc1)NCCC1=CCCCC1` as the molecule, how does the solubility kinetic read?
The solubility kinetic was 24.1 µg/mL (≈ 83.9 µM).

For `O=C(/C=C/c1ccco1)Nc1ccc2c(c1)OCCO2`, which solubility kinetic is on record?
Its solubility kinetic is > 40.7 µg/mL.

For `CC(Sc1nnc(NC2CC2)s1)C(=O)Nc1ccc(S(N)(=O)=O)cc1` (stereo unspecified), which solubility kinetic is on record?
Its solubility kinetic is > 59.9 µg/mL.

Which solubility kinetic does the source give for `COc1ccc(C)cc1-n1c(C)cc(C=O)c1C` here?
Its solubility kinetic is 36.4 µg/mL (≈ 150 µM).

For `Cc1ccnc(NC(=O)c2ccc(Cl)s2)c1`, which solubility kinetic is on record?
Its solubility kinetic is 16.1 µg/mL (≈ 63.7 µM).

With `COc1ccc(C(=O)COc2ccccc2C#N)cc1` as the molecule, how does the solubility kinetic read?
Its solubility kinetic is 3.6 µg/mL (≈ 13.5 µM).

For `COc1ccccc1NC(=O)C1=C(C)NC(=O)NC1c1ccco1` (stereo unspecified), which solubility kinetic is on record?
Its solubility kinetic is > 49.1 µg/mL.

Which solubility kinetic does the source give for `CCOCCn1c(CC)nc2ccccc21` here?
Its solubility kinetic is > 32.7 µg/mL.

With `O=C(c1cccc(F)c1)N1CCCc2ccccc21` as the molecule, how does the solubility kinetic read?
The solubility kinetic was 28.1 µg/mL (≈ 110 µM).

Which solubility kinetic does the source give for `O=C(O)[C@H](Cc1ccccc1)NC(=O)N1CCN(c2ccccc2)CC1` here?
Its solubility kinetic is 51.8 µg/mL (≈ 147 µM).

For `CCC(CC)C(=O)N1CC(=O)Nc2ccc(C)cc2C1c1ccccc1` (stereo unspecified), which solubility kinetic is on record?
The solubility kinetic was 2.4 µg/mL (≈ 6.85 µM).

Which solubility kinetic does the source give for `CCOc1ccc(N2CC(C(=O)NC3CCSC3=O)CC2=O)cc1` (stereo unspecified) here?
Its solubility kinetic is 42.6 µg/mL (≈ 122 µM).

For `Cc1ccc(C)c(OC(C)C(=O)Nc2nccs2)c1` (stereo unspecified), which solubility kinetic is on record?
The solubility kinetic was 32.8 µg/mL (≈ 119 µM).

— PubChem BioAssay AID1996
